Assay results as given in PMC10101059, “Rational Design of Stapled Antimicrobial Peptides to Enhance Stability and In Vivo Potency against Polymicrobial Sepsis” (Microbiology Spectrum, 2023).
In brackets after ≈: the same amount, converted by molar mass. Read-outs that look alike come from different tables or passages of the source.

Assays:
Assay in all cases: microbe, parasite or virus in culture
Escherichia coli = type: cell-based; conditions: Escherichia coli
Procedure: (§1) The antimicrobial assay was performed according to a modified National Committee for Clinical Laboratory Standards (NCCLS) protocol ([41], [42]). Briefly, 5 × 10^5 CFU/mL bacterial cells were treated with various peptide concentrations and incubated at 37 ± 2°C for 16 to 20 h. The lowest concentration with clear wells was recorded as the MIC for each test molecule. The clear wells were further plated in Mueller-Hinton agar (MHA) plates, followed by incubation overnight at 37 ± 2°C. After plating, the lowest concentration at which no growth was observed was recorded as the MBC. For the serum sensitivity assay, the antimicrobial activity of the peptides was tested in medium containing 50% human serum ([43], [44]).

Pseudomonas aeruginosa = type: cell-based; conditions: for MBC: read-out: MBC; for MIC: read-out: MIC
Procedure: as §1

Enterobacter aerogenes = type: cell-based; conditions: Klebsiella aerogenes; MHB medium
Procedure: as §1

[1] = system: NDM-1 Klebsiella pneumoniae; type: cell-based
Procedure: as §1

MDR A. baumannii 1033 = type: cell-based, Acinetobacter baumannii; conditions: for MBC: read-out: MBC; for MIC: read-out: MIC
Outline: (§2)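 Minimum inhibitory concentration determined visually (clear wells) after 16 to 20 h incubation of 5 × 10^5 CFU/mL with peptide at 37 ± 2°C. A parallel serum sensitivity test used medium containing 50% human serum.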

MDR A. baumannii 1607 = type: cell-based, Acinetobacter baumannii; conditions: for MBC: read-out: MBC
Outline: as §2

MDR A. baumannii 2088 = type: cell-based, Acinetobacter baumannii; conditions: for MBC: read-out: MBC; for MIC: read-out: MIC
Outline: as §2

MDR A. baumannii 1019 = type: cell-based, Acinetobacter baumannii
Outline: as §2

MDR A. baumannii 2997 = type: cell-based, Acinetobacter baumannii; conditions: for MBC: read-out: MBC; for MIC: read-out: MIC
Outline: as §2

MDR A. baumannii 921 = type: cell-based, Acinetobacter baumannii
Outline: as §2

MDR A. baumannii 14B0091 = type: cell-based, Acinetobacter baumannii
Outline: as §2

MDR A. baumannii 2998 = type: cell-based, Acinetobacter baumannii; conditions: for MBC: read-out: MBC
Outline: as §2

MDR A. baumannii 1702 = type: cell-based, Acinetobacter baumannii; conditions: for MBC: read-out: MBC; for MIC: read-out: MIC
Outline: as §2

MDR A. baumannii 2982 = type: cell-based, Acinetobacter baumannii
Outline: as §2

MDR A. baumannii 3618 = type: cell-based, Acinetobacter baumannii
Outline: as §2

[2] = HS, 50% human serum containing MHB medium
[3] = Pseudomonas aeruginosa, MHB medium
[4] = Klebsiella pneumoniae, MHB medium
[5] = Acinetobacter baumannii, MHB medium
[6] = HS, MH medium containing 50% human serum

C[C@@H](O)[C@H]1C(=O)N2C(C(=O)O)=C(S[C@@H]3CN[C@H](C(=O)N(C)C)C3)[C@H](C)[C@H]12 [Meropenem]
MBC (Escherichia coli; [2]): 0.78 µM (≈ 0.299 µg/mL) | MIC (Escherichia coli; [2]): 0.78 µM (≈ 0.299 µg/mL) | MBC (Escherichia coli; MHB medium): 0.39 µM (≈ 0.15 µg/mL) | MIC (Escherichia coli; MHB medium): 0.39 µM (≈ 0.15 µg/mL) | MBC (Pseudomonas aeruginosa; Pseudomonas aeruginosa, HS, 50% human serum containing MHB medium): 3.13 µM (≈ 1.2 µg/mL) | MBC (Pseudomonas aeruginosa; [3]): 6.25 µM (≈ 2.4 µg/mL) | MIC (Pseudomonas aeruginosa; [3]): 3.13 µM (≈ 1.2 µg/mL) | MIC (Pseudomonas aeruginosa): 1.56 µM (≈ 0.598 µg/mL) | MBC (Enterobacter aerogenes): 0.39 µM (≈ 0.15 µg/mL) | MIC (Enterobacter aerogenes): 0.39 µM (≈ 0.15 µg/mL) | MBC [1, 2]: >25 µM | MIC [1, 2]: >25 µM | MBC [1, 4]: > 25 µM | MIC [1, 4]: > 25 µM | MBC (MDR A. baumannii 1033; [5]): > 25 µM | MIC (MDR A. baumannii 1033; [5]): > 25 µM | MBC (MDR A. baumannii 1033; [6]): >25 µM | MIC (MDR A. baumannii 1033; [6]): >25 µM | MIC (MDR A. baumannii 1607; [5]): > 25 µM | MBC (MDR A. baumannii 1607; [5]): > 25 µM | MIC (MDR A. baumannii 1607; [6]): >25 µM | MBC (MDR A. baumannii 1607; [6]): >25 µM | MBC (MDR A. baumannii 2088; [5]): > 25 µM | MIC (MDR A. baumannii 2088; [5]): > 25 µM | MBC (MDR A. baumannii 2088; [6]): >25 µM | MIC (MDR A. baumannii 2088; [6]): >25 µM | MBC (MDR A. baumannii 1019; [5]): > 25 µM | MIC (MDR A. baumannii 1019; [5]): > 25 µM | MBC (MDR A. baumannii 1019; [6]): >25 µM | MIC (MDR A. baumannii 1019; [6]): >25 µM | MBC (MDR A. baumannii 2997; [5]): > 25 µM | MIC (MDR A. baumannii 2997; [5]): > 25 µM | MBC (MDR A. baumannii 2997; [6]): >25 µM | MIC (MDR A. baumannii 2997; [6]): >25 µM | MBC (MDR A. baumannii 921; [5]): > 25 µM | MIC (MDR A. baumannii 921; [5]): > 25 µM | MBC (MDR A. baumannii 921; [6]): >25 µM | MIC (MDR A. baumannii 921; [6]): >25 µM | MBC (MDR A. baumannii 14B0091; [5]): > 25 µM | MIC (MDR A. baumannii 14B0091; [5]): > 25 µM | MBC (MDR A. baumannii 14B0091; [6]): >25 µM | MIC (MDR A. baumannii 14B0091; [6]): >25 µM | MIC (MDR A. baumannii 2998; [5]): > 25 µM | MBC (MDR A. baumannii 2998; [5]): > 25 µM | MIC (MDR A. baumannii 2998; [6]): >25 µM | MBC (MDR A. baumannii 2998; [6]): >25 µM | MBC (MDR A. baumannii 1702; [5]): > 25 µM | MIC (MDR A. baumannii 1702; [5]): > 25 µM | MBC (MDR A. baumannii 1702; [6]): >25 µM | MIC (MDR A. baumannii 1702; [6]): >25 µM | MBC (MDR A. baumannii 2982; [5]): > 25 µM | MIC (MDR A. baumannii 2982; [5]): > 25 µM | MBC (MDR A. baumannii 2982; [6]): >25 µM | MIC (MDR A. baumannii 2982; [6]): >25 µM | MBC (MDR A. baumannii 3618; [5]): > 25 µM | MIC (MDR A. baumannii 3618; [5]): > 25 µM | MBC (MDR A. baumannii 3618; [6]): >25 µM | MIC (MDR A. baumannii 3618; [6]): >25 µM
